Source: US7727736B2, “Soluble phospholipids for use in clotting factor assays” (The University of North Carolina at Chapel Hill, priority 2003, dated 2010)

Columns and labels:
FXa•FVa2 complex = target: T1, FXa•FVa2 complex (Homo sapiens, UniProt P00742+P12259); assay: Native gel electrophoresis (Ferguson analysis), C6PS bound to FXa•FVa2 complex; type: binding
T1 construct: Human prothrombin and factor Xa; tissue Hematologic Technologies Inc. (factor Xa only); factor Xa purchased
Protocol: A mixture of FXa and FVa2 in the absence (lane 1 of gel) and presence (lane 2) of 400 μM C6PS (5 mM Ca^2+) was analyzed by native polyacrylamide gel electrophoresis on a standard 6% gel (Majumder, et al. (2002) supra). A log-log plot of retardation coefficients versus molecular mass of different reference proteins is also shown (open circles). Points have been added to this plot for retardation coefficients obtained for FXa (triangle) or FVa2 (4-point star) in the absence of C6PS, and of the FXa•FVa2 complex (5-point star) formed in the presence of C6PS. The apparent molecular weight of the complex, as identified from this plot, was 224±3.7 kilodaltons.
Native Gel Electrophoresis. This method has been used to document the association of blood coagulation proteins in solution (Majumder, et al. (2002) supra; Majumder, et al. (2003) supra). […] Protein retardation coefficients, which depend to a good approximation only on the hydrodynamic size and shape of the protein, were determined for both the marker and unknown proteins (Ferguson (1964) Metabolism 13:985-1002). A log-log plot of the retardation coefficient against the molecular weights of the marker proteins produced a linear curve from which the molecular weight of the FVa•FXa complex was determined from its measured retardation coefficient (Bryan (1977) Anal. Biochem. 78(2):513-9). […]

FXa = FXa (Homo sapiens, UniProt P00742); settings: equilibrium dialysis; cited from earlier work
Chain of FXa (P00742 41-179 limits assumed): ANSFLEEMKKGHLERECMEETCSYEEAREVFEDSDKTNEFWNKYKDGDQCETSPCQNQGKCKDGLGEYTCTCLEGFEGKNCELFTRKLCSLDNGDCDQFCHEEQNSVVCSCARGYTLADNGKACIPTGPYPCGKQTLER
Chain of FXa (P00742 235-488 limits assumed): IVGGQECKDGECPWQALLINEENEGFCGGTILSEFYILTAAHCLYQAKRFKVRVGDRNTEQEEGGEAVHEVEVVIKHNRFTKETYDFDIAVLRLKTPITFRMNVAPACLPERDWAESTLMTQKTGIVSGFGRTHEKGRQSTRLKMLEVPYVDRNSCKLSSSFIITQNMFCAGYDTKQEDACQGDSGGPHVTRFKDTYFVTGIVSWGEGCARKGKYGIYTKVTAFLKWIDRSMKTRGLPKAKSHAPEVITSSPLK

T1 sequence (P00742 41-179 limits assumed): as the sequence (P00742 41-179 limits assumed) above
T1 sequence (P00742 235-488 limits assumed): as the sequence (P00742 235-488 limits assumed) above
T1 sequence (P12259 29-737 limits assumed): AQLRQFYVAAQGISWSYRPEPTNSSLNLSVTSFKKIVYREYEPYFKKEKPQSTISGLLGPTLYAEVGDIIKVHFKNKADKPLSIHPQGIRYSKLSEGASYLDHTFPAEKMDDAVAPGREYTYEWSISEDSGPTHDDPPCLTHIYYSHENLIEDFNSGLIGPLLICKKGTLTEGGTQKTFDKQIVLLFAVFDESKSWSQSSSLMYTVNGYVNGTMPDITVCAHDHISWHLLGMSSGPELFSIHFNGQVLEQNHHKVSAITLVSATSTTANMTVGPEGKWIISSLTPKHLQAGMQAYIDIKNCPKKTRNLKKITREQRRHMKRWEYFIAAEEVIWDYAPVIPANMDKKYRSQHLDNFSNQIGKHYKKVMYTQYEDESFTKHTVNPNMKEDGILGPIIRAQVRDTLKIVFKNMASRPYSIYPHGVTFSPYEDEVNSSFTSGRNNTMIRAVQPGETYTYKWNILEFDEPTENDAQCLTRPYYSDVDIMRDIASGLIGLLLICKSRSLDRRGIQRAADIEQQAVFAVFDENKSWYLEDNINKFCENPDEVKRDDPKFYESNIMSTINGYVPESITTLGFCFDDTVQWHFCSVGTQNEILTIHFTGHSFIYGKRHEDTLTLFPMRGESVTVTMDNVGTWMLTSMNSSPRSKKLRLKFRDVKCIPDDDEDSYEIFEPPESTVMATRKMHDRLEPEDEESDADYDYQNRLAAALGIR
T1 sequence (P12259 1574-2224 limits assumed): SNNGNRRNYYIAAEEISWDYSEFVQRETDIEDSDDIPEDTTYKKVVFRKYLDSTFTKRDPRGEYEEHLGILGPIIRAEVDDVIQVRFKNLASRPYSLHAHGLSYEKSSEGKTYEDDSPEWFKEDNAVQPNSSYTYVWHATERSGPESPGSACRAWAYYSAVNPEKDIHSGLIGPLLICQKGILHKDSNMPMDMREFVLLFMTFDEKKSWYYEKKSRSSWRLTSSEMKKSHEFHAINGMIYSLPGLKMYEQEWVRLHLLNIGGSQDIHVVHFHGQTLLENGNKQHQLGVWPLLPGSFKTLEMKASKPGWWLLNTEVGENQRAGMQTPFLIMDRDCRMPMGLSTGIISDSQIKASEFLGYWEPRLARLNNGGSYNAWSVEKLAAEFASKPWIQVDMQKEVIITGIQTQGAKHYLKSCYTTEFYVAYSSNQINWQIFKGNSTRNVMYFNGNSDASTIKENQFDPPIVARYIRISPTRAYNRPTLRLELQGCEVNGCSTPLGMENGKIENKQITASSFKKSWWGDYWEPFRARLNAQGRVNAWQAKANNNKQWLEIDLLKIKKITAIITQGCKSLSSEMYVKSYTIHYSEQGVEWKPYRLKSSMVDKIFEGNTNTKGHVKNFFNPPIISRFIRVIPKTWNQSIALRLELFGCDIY

## CCCCCC(=O)OC[C@H](COP(=O)(O)OC[C@H](N)C(=O)O)OC(=O)CCCCC [C6PS, 1,2-dicaproyl-sn-glycero-3-phospho-L-serine]
FXa•FVa2 complex; 400 μM C6PS
  C6PS in stoichiometry Xa:Va2:C6PS of the complex from molecular mass: 3.4±7.7
FXa•FVa2 complex; based on equilibrium dialysis stoichiometries
  most likely number of C6PS molecules bound to the complex: 5-6 molecules
FXa
  stoichiometry of C6PS binding to FXa at saturation: 2
